Test results taken from the NIST ThermoML archive (doi:10.1016/j.jct.2014.06.017).

Assay: wn = mass fraction of the nth substance listed
Conditions: 100 kPa, Liquid, Concentric cylinders viscometry

CN(CCO)CCO [N-methyldiethanolamine] + O
viscosity [mPa·s]
Conditions	298.2 K	303.2 K	313.2 K	323.2 K
w1 = 0.3502	4.07	3.36	2.56	2.02
w1 = 0.4001	5.2	4.41	3.02	2.65
w1 = 0.45	7.62	6.1	4.37	3.63

NCCO [2-aminoethan-1-ol] + O
viscosity [mPa·s]
Conditions	298.2 K	303.2 K	313.2 K	323.2 K
w1 = 0.2	1.72	1.53	1.18	0.98
w1 = 0.2499	2.02	1.79	1.32	1.12
w1 = 0.3001	2.32	2.13	1.59	1.31

OCCNCCO [diethanolamine] + O
viscosity [mPa·s]
Conditions	298.2 K	303.2 K	313.2 K	323.2 K
w1 = 0.2001	1.92	1.67	1.32	1.05
w1 = 0.25	2.61	2.16	1.67	1.34
w1 = 0.3001	3.26	2.57	1.99	1.41
